Measured values published in patent US10370644B2, “Method for making human pluripotent suspension cultures and cells derived therefrom” (Janssen Biotech, Inc., priority 2012, dated 2019).

Experiments:
Type in all cases: cell-based
[1] = system: Clusters from pluripotent human embryonic stem cell line H1 (NIH code: WA01); assay: Efficiency of definitive endoderm generation: percentage of cells expressing CXCR4 (CD184), CD99 and CD9 by flow cytometry after 3 days of differentiation in suspension culture; conditions: for CD9 (% by FACS) / CD99 (% by FACS) / CD184 (% by FACS): end of day three
Experimental: Clusters from pluripotent human embryonic stem cell line H1 (NIH code: […] MCDB-131 medium supplemented in this manner will be referred to as “stage 1 basal medium” for the purposes of this application. […] No. 12/494,789; incorporated herein by reference in its entirety) and 100 ng/ml GDF-8 (Catalog #120-00, Peprotech), or 3 μM MCX only, or 20 ng/ml WNT-3A (Catalog #1324-WN-002, R&D Systems, MN) plus 100 ng/ml Activin A (Catalog #338-AC, R&D Systems, MN) or 20 ng/ml WNT-3A only. On day two, cells were transferred to fresh stage 1 basal media supplemented with either 100 ng/ml GDF8 or 100 ng/ml Activin A. Samples were collected for flow cytometry, PCR and Western Blot analysis at various time points ranging from time zero (immediately before addition of basal media plus supplements) up to 72 hours after beginning differentiation. The efficiency with which definitive endoderm was generated was determined after 3 days of differentiation under each condition by measuring the percentage of cells expressing the cells surface markers CXCR4, CD99 and CD9 using flow cytometry. […] Clusters from pluripotent human embryonic stem cell line H1 (NIH code: WA01) were seeded at cell densities ranging from 0.25×10^6 to 2×10^6 cells/ml in Erlenmeyer/shaker flasks or spinner flasks in stage 1 basal media as described in Example 9. Clusters were treated with stage 1 basal medium containing 1.5, 2, 3, or 4 μM MCX on day one of differentiation and with fresh stage 1 basal medium containing 100 ng/ml GDF-8 on day 2. No media exchange was performed on day three. Samples were collected for flow cytometry and PCR analysis at the end of day three of differentiation. The efficiency with which definitive endoderm was generated was then determined by measuring the percentage of cells expressing the cells surface markers CXCR4, CD99 and CD9 using flow cytometry. […] However, by increasing BSA concentrations, the effects of MCX can be modulated such that concentrations≥4 micromolar may be used. Conversely, concentrations≤1.5 micromolar may be used to generate definitive endoderm when used with lower BSA concentrations. The example was carried out to determine whether GlutaMAX™ supplementation was required for generation of definitive endoderm by suspending clusters in stage 1 basal media (described in Example 9) plus or minus GlutaMAX™, which was supplemented with 3 μM MCX on day one of differentiation and with fresh stage 1 basal medium containing 100 ng/ml GDF-8 on day 2. No media exchange was performed on day three. Samples were collected for flow cytometry and PCR analysis at the end of day three of differentiation. The efficiency with which definitive endoderm was generated was determined under each condition by measuring the percentage of cells expressing the cells surface markers CXCR4, CD99 and CD9 using flow cytometry. Clusters from pluripotent human embryonic stem cell line H1 (NIH code: […] Clusters were treated with stage 1 basal medium containing MCX and GDF-8 as described in Example 12. Samples were collected for flow cytometry at the end of day three of differentiation. Phase contrast images were also captured on each day of differentiation. The efficiency with which definitive endoderm was generated was then determined by measuring the percentage of cells expressing the cells surface markers CXCR4, CD99 and CD9 using flow cytometry. The data is shown in FACS plots in FIGS. 44 A&B and summarized in Table 17. […] In addition, it was observed that differences in bicarbonate levels correlated with differences in cluster morphologies at the end of stage 1, as observed by phase contrast microscopy (FIGS. 44 C&D). Also, cells differentiated under high bicarbonate levels were noted to form looser clusters than cells differentiated in 2.43 g/L of bicarbonate.

[2] = system: Clusters from pluripotent human embryonic stem cell line H1 (NIH code: WA01); assay: Cell viability of clusters treated with MCX in suspension culture; conditions: MCX at concentrations above 4 μM
Experimental: Clusters from pluripotent human embryonic stem cell line H1 (NIH code: WA01) were seeded at cell densities ranging from 0.25×10^6 to 2×10^6 cells/ml in Erlenmeyer/shaker flasks or spinner flasks in stage 1 basal media as described in Example 9. Clusters were treated with stage 1 basal medium containing 1.5, 2, 3, or 4 μM MCX on day one of differentiation and with fresh stage 1 basal medium containing 100 ng/ml GDF-8 on day 2. No media exchange was performed on day three. Samples were collected for flow cytometry and PCR analysis at the end of day three of differentiation.
The efficiency with which definitive endoderm was generated was then determined by measuring the percentage of cells expressing the cells surface markers CXCR4, CD99 and CD9 using flow cytometry. […] However, by increasing BSA concentrations, the effects of MCX can be modulated such that concentrations≥4 micromolar may be used. Conversely, concentrations≤1.5 micromolar may be used to generate definitive endoderm when used with lower BSA concentrations.

[3] = system: Clusters from pluripotent human embryonic stem cell line H1 (NIH code: WA01); assay: EdU incorporation and cell cycle stage (G0/G1, S, G2/M) by flow cytometry during definitive endoderm differentiation; conditions: for cells in G0/G1 of the cell cycle: 48 hours after initiation of differentiation; for percentage of cells with EdU incorporation (mean of GDF8, WNT-3A, WNT-3A+Activin A and neat medium) / average decrease in the number of cells in G0/G1 (GDF8, WNT-3A, WNT-3A+Activin A and neat medium): six hours after the initiation of differentiation; for percentage of cells with EdU incorporation (mean of GDF8, WNT-3A, WNT-3A+Activin A and neat medium): SD ±1.2; for average decrease in the number of cells in G0/G1 (GDF8, WNT-3A, WNT-3A+Activin A and neat medium): Standard Deviation ±5%
Experimental: (§1) Clusters from pluripotent human embryonic stem cell line H1 (NIH code: WA01) were seeded at 0.5×10^6 cells/ml in Erlenmeyer shaker flasks in MCDB-131 medium containing […] sodium bicarbonate and 5.5 mM glucose (Catalog #A13051 DJ, Invitrogen, CA), which was supplemented with 2% fatty acid free BSA (Catalog #68700, Proliant, Iowa), 1× GlutaMAX™ (Catalog #35050-079, Invitrogen, CA), an additional 2.5 mM glucose (Catalog #G8769, Sigma) and ITS-X at 1:50,000 stock concentration (Catalog #51500056, Invitrogen, CA). MCDB-131 medium supplemented in this manner will be referred to as stage 1 basal medium or “Neat” medium for the purposes of this example. The GSK3B inhibitor, 14-Prop-2-en-1-yl-3,5,7,14,17,23,27-heptaazatetracyclo[19.3.1.1-2,6˜.1˜8,12˜]heptacosa-1(25),2(27),3,5,8(26),9,11,21,23-nonaen-16-one, U.S. patent application Ser. No. 12/494,789; incorporated herein by reference in its entirety will be referred to as “MCX”.
(§2) Clusters were treated on the first day of differentiation with one of six conditions: (1) Neat, (2) 3 μM MCX plus 100 ng/ml GDF-8 (Catalog #120-00, Peprotech), (3) 3 μM MCX only, (4) 100 ng/ml GDF-8 only, (5) 20 ng/ml WNT-3A (Catalog #1324-WN-002, R&D Systems, MN) plus 100 ng/ml Activin A (Catalog #338-AC, R&D Systems, MN), or (6) 20 ng/ml WNT-3A only.
(§3) Media in each of the conditions was changed at 24 and 48 hours after the initiation of differentiation. At these times, cells in conditions 1, 2, 3, and 4 were changed to fresh stage 1 basal media supplemented with 100 ng/ml GDF8 while cells in conditions 5 and 6 were changed to fresh stage 1 basal media supplemented with 100 ng/ml Activin A.
One hour prior to initiation of differentiation, and 5, 23, 29, 47, or 71 hours after the initiation of differentiation (referred to as “Time 0”), suspension samples were transferred to a non-tissue culture treated six well dish and incubated with EdU (Click-iT® EdU Kit, Life Technologies Corporation, Carlsbad, Calif.) for one hour. The EdU incubated cells were then assessed by flow cytometry at times 0, 6, 24, 30, 48, or 72 hours after initiation of differentiation to measure the percentage of cells in G0/G1, S, or G2/M stages of the cell cycle (FIGS. 81-87).

[4] = system: Clusters from pluripotent human embryonic stem cell line H1 (NIH code: WA01); assay: qRT-PCR gene expression, fold versus undifferentiated cells, 0-72 hours of differentiation (Example 15)
Experimental: as §1, §2, §3
However, consistent with the differences in cell cycle observed through the process of forming definitive endoderm, intermediate differences in gene expression were seen. […] (FIGS. 88c and e).

[5] = 2.43 g/L Sodium bicarbonate in modified stage 1 basal media, MCX and GDF-8
[6] = 3.64 g/L Sodium bicarbonate in stage 1 basal media, MCX and GDF-8
[7] = 6 hours following initiation of differentiation
[8] = 1.5 μM MCX on day one, 100 ng/ml GDF-8 on day 2
[9] = 2 μM MCX on day one, 100 ng/ml GDF-8 on day 2
[10] = 3 μM MCX on day one, 100 ng/ml GDF-8 on day 2
[11] = 4 μM MCX on day one, 100 ng/ml GDF-8 on day 2

Molecule: O=C([O-])O.[Na+] [Sodium bicarbonate]
- CD9 (% by FACS) [1, 5]: 12.3%
- CD99 (% by FACS) [1, 5]: 66.7%
- cells expressing CXCR4, on average ([1]; 2.43 g/L sodium bicarbonate): 87.4%
- CD9 (% by FACS) [1, 6]: 5.5%
- CD99 (% by FACS) [1, 6]: 92.7%
- cells expressing CXCR4, on average ([1]; 3.64 g/L sodium bicarbonate): 97.35%

Molecule: C=CCN1CC(=O)NCCCc2cncc(c2)-c2ncnc(n2)Nc2cccc(c2)C1 [MCX, 14-Prop-2-en-1-yl-3,5,7,14,17,23,27-heptaazatetracyclo[19.3.1.1˜2,6-˜0.1˜8,12.˜]heptacosa-1(25),2(27),3,5,8(26),9,11,21,23-non-aen-16-one]
- effect on cell viability [2]: decreased cell viability
- increase in G0/G1 cells [3, 7]: 54%
- reduction in the incorporation of EdU compared to the other four treatment conditions [3, 7]: ~40%
- CD9 (% by FACS) [1, 8]: 68.4%
- CD184 (% by FACS) [1, 8]: 67.8%
- CD9 (% by FACS) [1, 9]: 0.2%
- CD184 (% by FACS) [1, 9]: 96.5%
- definitive endoderm level versus 3 μM MCX plus 100 ng/ml GDF-8 or 20 ng/ml WNT-3A plus 100 ng/ml Activin A on day one ([1]; 3 μM MCX in the absence of a TGF-β family member on day one): comparable
- CD9 (% by FACS) [1, 10]: 0.2%
- CD184 (% by FACS) [1, 10]: 96.0%
- CD9 (% by FACS) [1, 11]: 1.0%
- CD184 (% by FACS) [1, 11]: 95.2%
- definitive endoderm positive cells (CXCR4 positive, CD9 positive) ([1]; MCX at concentrations less than 2 μM): progressively fewer definitive endoderm positive cells
- magnitude of induction of FGF4, FOXA2 and SOX17 compared to the other four conditions ([4]; 24 hours after the initiation of differentiation): much lower
- expression of genes for pluripotency (NANOG and POU5F1/OCT4) versus starting cell population or other four conditions ([4]; by 24 hours): dramatically reduced
- definitive endoderm by gene expression versus 20 ng/ml WNT-3A plus 100 ng/ml Activin A on day one ([4]; end of definitive endoderm formation): comparable
- induction of genes T (brachyury), GATA4 and CDX2 versus WNT-3A+Activin A or the other three conditions ([4]; first 24 hours of differentiation): substantially higher

Molecule: GDF8: TGF-β family member, GDF8 (Catalog #120-00, Peprotech)
- cells in G0/G1 of the cell cycle [3]: 48.5%
- percentage of cells with EdU incorporation (mean of GDF8, WNT-3A, WNT-3A+Activin A and neat medium) [3]: 48.1%
- average decrease in the number of cells in G0/G1 (GDF8, WNT-3A, WNT-3A+Activin A and neat medium) [3]: 13%

B1: WNT-3A: WNT-3A (Catalog #1324-WN-002, R&D Systems) (protein, UniProt P56704 19-352, looked up)
Protein Wnt-3a: SYPIWWSLAVGPQYSSLGSQPILCASIPGLVPKQLRFCRNYVEIMPSVAEGIKIGIQECQHQFRGRRWNCTTVHDSLAIFGPVLDKATRESAFVHAIASAGVAFAVTRSCAEGTAAICGCSSRHQGSPGKGWKWGGCSEDIEFGGMVSREFADARENRPDARSAMNRHNNEAGRQAIASHMHLKCKCHGLSGSCEVKTCWWSQPDFRAIGDFLKDKYDSASEMVVEKHRESRGWVETLRPRYTYFKVPTERDLVYYEASPNFCEPNPETGSFGTRDRTCNVSSHGIDGCDLLCCGRGHNARAERRREKCRCVFHWCCYVSCQECTRVYDVHTCK
- cells in G0/G1 of the cell cycle [3]: 55.8%
- percentage of cells with EdU incorporation (mean of GDF8, WNT-3A, WNT-3A+Activin A and neat medium) [3]: 48.1%
- average decrease in the number of cells in G0/G1 (GDF8, WNT-3A, WNT-3A+Activin A and neat medium) [3]: 13%
